Results taken from PubChem BioAssay AID1645862 (Buhrlage Lab, Dana-Farber Cancer Institute and Novartis …, 2021).
Activity calls are given as the source filed them. No rule for the calls is given here.

Molecular target: Ubiquitin carboxyl-terminal hydrolase 8 (Homo sapiens) (UniProt P40818)
Assay: Ubiquitin-specific protease 8 inhibitors, concentration-effect, biochemical, validation of initial actives (AID 1645862);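 also: potency reflects inhibition of USP8 cleavage of a ubiquitin rhodamine substrate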
Settings: recombinant USP8 deubiquitinase activity assay

Ubiquitin carboxyl-terminal hydrolase 8 (Homo sapiens), sequence (P40818 whole entry, looked up): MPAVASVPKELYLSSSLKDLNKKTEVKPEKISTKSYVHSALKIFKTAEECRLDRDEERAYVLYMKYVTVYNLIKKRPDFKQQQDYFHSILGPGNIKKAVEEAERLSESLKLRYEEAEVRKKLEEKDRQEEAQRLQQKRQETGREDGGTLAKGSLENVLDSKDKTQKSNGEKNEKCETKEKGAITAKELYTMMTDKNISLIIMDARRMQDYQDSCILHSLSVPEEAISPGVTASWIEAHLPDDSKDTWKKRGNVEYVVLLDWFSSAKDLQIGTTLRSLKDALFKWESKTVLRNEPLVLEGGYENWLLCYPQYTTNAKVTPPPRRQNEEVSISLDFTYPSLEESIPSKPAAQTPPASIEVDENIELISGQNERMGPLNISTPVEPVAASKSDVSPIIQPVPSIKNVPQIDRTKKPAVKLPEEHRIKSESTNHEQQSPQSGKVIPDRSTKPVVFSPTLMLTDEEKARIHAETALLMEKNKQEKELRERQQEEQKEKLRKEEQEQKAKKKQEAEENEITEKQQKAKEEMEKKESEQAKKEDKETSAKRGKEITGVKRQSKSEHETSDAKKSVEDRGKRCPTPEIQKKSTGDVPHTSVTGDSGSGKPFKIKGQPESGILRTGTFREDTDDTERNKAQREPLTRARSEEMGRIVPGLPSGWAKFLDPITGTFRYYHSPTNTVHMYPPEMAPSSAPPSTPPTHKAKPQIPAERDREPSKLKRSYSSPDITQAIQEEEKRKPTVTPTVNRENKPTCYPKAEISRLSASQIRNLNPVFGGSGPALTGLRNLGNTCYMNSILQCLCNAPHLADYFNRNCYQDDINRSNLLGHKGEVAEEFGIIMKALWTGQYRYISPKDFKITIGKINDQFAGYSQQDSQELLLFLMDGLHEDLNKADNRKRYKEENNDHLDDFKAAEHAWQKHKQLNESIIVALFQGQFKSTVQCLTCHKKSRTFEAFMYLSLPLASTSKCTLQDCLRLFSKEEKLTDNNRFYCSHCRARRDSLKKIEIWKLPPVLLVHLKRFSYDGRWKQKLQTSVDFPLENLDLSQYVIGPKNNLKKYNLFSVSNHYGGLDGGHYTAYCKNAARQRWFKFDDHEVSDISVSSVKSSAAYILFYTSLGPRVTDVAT

Structure (SMILES)	IC50
COc1ccc(NC(=O)Cn2c(=O)n(CCC(=O)NCc3ccccc3)c(=O)c3sccc32)cc1Cl	> 40 µM (inactive)
FC(F)(F)c1ccc(Nc2nnnc3ccccc23)cc1	> 40 µM (inactive)
O=C(CC1C(=O)Nc2nc(-c3ccccc3)nn21)Nc1cccc2ccccc12 (centres undefined)	> 40 µM (inactive)
O=C(CN1CC=C(c2ccccc2)CC1)Nc1ccc(S(=O)(=O)N2CCOCC2)cc1	> 40 µM (inactive)
Cc1ccc2c(c1)c1ncn(Cc3nc(C)no3)c(=O)c1n2CC(=O)NCc1ccccc1	> 40 µM (inactive)
CCOc1ccc(NC(=O)Cn2c(=O)n(CCC(=O)NCc3ccccc3OC)c(=O)c3ccccc32)cc1	> 40 µM (inactive)
Cc1ccc2c(c1)c(=O)c(C(=O)c1ccccc1)cn2CC(=O)Nc1ccc2c(c1)OCCO2	> 40 µM (inactive)
CCc1ccc(OCCn2c(CCNC(=O)C3CCCCC3)nc3ccccc32)cc1	> 40 µM (inactive)
COc1ccc(CCC(=O)Nc2nnc(C3CC(=O)N(c4ccc(C)cc4)C3)s2)cc1 (centres undefined)	> 40 µM (inactive)
O=C(COc1cccc(-c2noc(-c3ccc([N+](=O)[O-])cc3)n2)c1)Nc1ccccc1	> 40 µM (inactive)
Cn1nc(C(=O)N2CCC(c3ccccc3)C2)c2c1-c1ccsc1CC2 (centres undefined)	38.4 µM
CC[C@@H](C(=O)[C@@H](C)[C@@H](O)[C@H](C)CCc1ccc(C)c(O)c1C(=O)O)[C@@H]1O[C@](CC)([C@H]2CC[C@](O)(CC)[C@H](C)O2)C[C@@H]1C	> 40 µM (inactive)
O=C(Cc1nnc(NC(=O)Nc2ccc3c(c2)OCO3)s1)NCc1ccccc1	> 40 µM (inactive)
FC(F)(F)c1cccc(Nc2nc(-c3ccccn3)nc3ccccc23)c1	> 40 µM (inactive)
O=C(Nc1ccc2c(c1)CCC2)C1Cc2ccccc2CN1C(=O)c1ccccc1 (centres undefined)	> 40 µM (inactive)
COc1cccc(Cn2cnc3c(NS(=O)(=O)c4ccc(Cl)cc4)c(C)c(C)cc32)c1	> 40 µM (inactive)
O=C(c1cc(Cl)c(Cl)[nH]1)c1cc(Cl)cc(Cl)c1O	> 40 µM (inactive)
O=C(Cn1cnc(-c2ccccc2)cc1=O)Nc1ccc(Oc2ccccc2)cc1	> 40 µM (inactive)
COc1ccc2nc(N3CC(C(=O)Nc4ccc(C(N)=O)cc4)C3)sc2c1	> 40 µM (inactive)
Oc1cccc2c(-c3ccc(O)c4c(O)cccc34)ccc(O)c12	> 40 µM (inactive)
CCc1ccc(CN(C)C(=O)c2ccc(NS(=O)(=O)c3ccc(F)c(F)c3)cc2)cc1	> 40 µM (inactive)
COc1ccc(C2/C(=C(\O)c3ccccc3)C(=O)C(=O)N2c2nc3ccc(F)cc3s2)cc1 (centres undefined)	27.2 µM

Structure (SMILES)	IC50
O=C(Cn1c(=O)c2sccc2n(Cc2ccc([N+](=O)[O-])cc2)c1=O)NCCc1ccccc1	> 40 µM (inactive)
O=c1c(O)c(-c2ccc(O)c(O)c2)oc2cc(O)cc(O)c12	0.802 µM
C=C1C=C(CCC(=O)O)C(=O)OC1/C=C/C=C/C (centres undefined)	2.09 µM
COc1ccc(-n2ccc(=O)c(-c3nc(-c4ccc(F)cc4)no3)n2)cc1	> 40 µM (inactive)
Cc1ccc(OCc2nc3ccccc3n2CC(=O)Nc2ccc(C(F)(F)F)cc2)cc1	> 40 µM (inactive)
COc1ccc(Cl)cc1NC(=O)Cn1c(=O)n(CCCC(=O)NCc2ccc(C)cc2)c(=O)c2sccc21	> 40 µM (inactive)
Cc1ccc(Nc2nc(O)c(CC(=O)Nc3ccc(C)cc3C)s2)cc1	> 40 µM (inactive)
COc1ccc(NC(=O)CNC(=O)c2ccc3nc(-n4cccc4)sc3c2)cc1	> 40 µM (inactive)
O=C(Cn1c(=O)n(Cc2ccccc2)c(=O)c2ncccc21)NCc1ccccc1Cl	> 40 µM (inactive)
O=C(O)c1nccnc1C(=O)N1CCc2ccccc2C1	> 40 µM (inactive)
COc1ccc(-c2cc3nc([C@H](C)NC(=O)Cc4cc(F)ccc4F)nn3cn2)cc1	> 40 µM (inactive)
Cc1[nH]nc(NC(=O)C2COc3ccccc3O2)c1-c1ccccc1 (centres undefined)	37.3 µM
COc1cccc(N2CCCN(C(=O)c3ccc4nc(C)[nH]c4c3)CC2)c1	> 40 µM (inactive)
COC(=O)Nc1cccn(Cc2c(Cl)cccc2Cl)c1=O	> 40 µM (inactive)
Cc1cccn2c(=O)c3cc(C#N)c(=O)n(-c4cccc(C(F)(F)F)c4)c3nc12	> 40 µM (inactive)
CN(C)S(=O)(=O)c1ccc(NC(=O)CN2CCCc3ccccc32)cc1	> 40 µM (inactive)
CC(=O)Nc1ccc(Cc2nc(-c3ccc4c(c3)nc(C)c(=O)n4C3CCCC3)no2)cc1	> 40 µM (inactive)
COc1ccc(-c2nc(NCCCN3CCOCC3)c3ccccc3n2)cc1	> 40 µM (inactive)
COc1ccc(-c2ccc3cc(C(=O)O)ccc3c2)cc1C12CC3CC(CC(C3)C1)C2	8.03 µM
Cc1ccnc(NS(=O)(=O)c2ccc(NC(=O)c3ccc(S(=O)(=O)N(C)Cc4ccccc4)cc3)cc2)n1	> 40 µM (inactive)
Cc1ccccc1-c1nc(-c2cn(CC(=O)Nc3ccccc3)cn2)no1	> 40 µM (inactive)
Cc1ccc(C2c3[nH]c4ccccc4c3C[C@H]3C(=O)N(c4ccc(C(=O)NCCc5ccccc5)cc4)C(=O)N23)cc1 (some centres undefined)	> 40 µM (inactive)

Structure (SMILES)	IC50
CCOc1ccccc1-c1cc(NC(=O)c2cc3ccc4cccnc4c3[nH]2)on1	> 40 µM (inactive)
Cc1nn(-c2ccccc2)c2c1nc(CCC(=O)NC1CCCCC1)c(=O)n2C	> 40 µM (inactive)
O=C(Nc1cccc(-c2nc3cnccc3o2)c1)c1ccc(Br)o1	> 40 µM (inactive)
O=C(COc1ccc(C2CCCCC2)cc1)Nc1ccc(-c2nn3cnnc3s2)cc1	> 40 µM (inactive)
O=C(NCC1(c2ccccc2)CCC1)c1nc2n(n1)-c1ccccc1S(=O)(=O)N2	> 40 µM (inactive)
Cc1cc(Cl)ccc1NC(=O)c1cc(-c2ccncc2)n[nH]1	> 40 µM (inactive)
O=C(Nc1cccc(Cl)c1)c1cc(-c2cccnc2)n[nH]1	> 40 µM (inactive)
COc1ccc(-c2nc3n(n2)C(CC(=O)Nc2cccc4ccccc24)C(=O)N3)cc1 (centres undefined)	> 40 µM (inactive)
Cc1[nH]n2c(=O)c(Cl)c(-c3ccccc3)nc2c1-c1ccccc1	> 40 µM (inactive)
Cc1ccc(NC(=O)c2ccc3nn(CC(=O)Nc4ccc(C)cc4C)c(=O)n3c2)cc1	> 40 µM (inactive)
COc1ccc(/C=C/C(=O)Nc2nc3n(n2)C(c2ccccc2)CC(=O)N3)cc1 (centres undefined)	> 40 µM (inactive)
CCCCCCCc1cc(OC(=O)c2c(CCCCCCC)cc(O)cc2O[C@@H]2O[C@H](CO)[C@H](O)[C@H](O)[C@H]2O)cc(O)c1C(=O)O	9.43 µM
Cc1ccc(NC(=O)Cc2nnc3cc(-c4nc(C)no4)ccn23)cc1	21.3 µM
O=C(NCc1ccc(Cl)cc1)c1cc2c(s1)-c1ccccc1OC2	> 40 µM (inactive)
CCOc1ccc2c(c1)c(=O)c(C(=O)c1ccccc1)cn2CC(=O)Nc1ccc(Cl)cc1	32.2 µM
O=C(COc1ccccc1-c1nnc(-c2ccccc2)o1)NCc1ccco1	37.9 µM
Cc1ccc(C)c(Cn2cnc3c(nnn3-c3cccc(F)c3)c2=O)c1	> 40 µM (inactive)
Cc1ncc(-c2ccc3c(c2)OCO3)c(-c2nccs2)n1	> 40 µM (inactive)
CC(C)=CCC/C(C)=C/COc1ccc(/C=C2\C(=O)N(O)[C@@H](C)C(=O)N2O)cc1	> 40 µM (inactive)
CC(C)Cc1ccc(-c2cc(-c3ccc(C(F)(F)F)cc3)c(C#N)c(=O)[nH]2)cc1	> 40 µM (inactive)
